The nature of this data set: Rate of dissolution of model melanin and color of its solutions. Type of data set: physicochemical, Aspergillus niger. The settings on record: for Time of dissolution: model melanin; for Color of the solution: solution of model melanin.

With `[Na+].[OH-]` [0.01 N sodium hydroxide, sodium hydroxide], the “pH of the solution” value came out at 9.5, the Time of dissolution was determined as 6 min and the “Color of the solution” value is recorded as “Yellow-”.
`CC(=O)O` [0.01 N solution of acetic acid, acetic acid]: the “pH of the solution” value amounted to 3.5. Further, the Time of dissolution entry (not dissolved within this time) is listed as “Not dissolved in 5 hours”.
Regarding `N` [0.01% ammonia, ammonia], the “pH of the solution” value amounted to 10.5, the Time of dissolution was 5 min and the “Color of the solution” value is “-”-”.
On to `FC(F)(Br)C(F)(F)Br` [1,2-dibromtetrafluoroethane], for which the “pH of the solution” value was 7, the Time of dissolution was 5 min and the “Color of the solution” value is recorded as “Colorless”.
`OO` [4% solution of HP, hydrogen peroxide]: the “pH of the solution” value is given as 3.5. Moreover, the Time of dissolution entry (not dissolved within this time) is given as “Not dissolved in 5 hours”.
In the case of `NCCO` [Monoethanolamine], the “pH of the solution” value turned out to be 10, the Time of dissolution came to 2 min and the “Color of the solution” value was “-”-”.
The corresponding values for `FN(F)C1(C(F)(F)F)C(F)(F)C(F)(F)C(F)(F)C(F)(C(F)(F)F)C1(F)F` (stereo not drawn) [Perfluoro-1,3-dimethyl-cyclohexylamine] are 7, 3 min and “Lemon”.
For `FC1(F)C(F)(F)C(F)(F)C2(F)C(F)(F)C(F)(F)C(F)(F)C(F)(F)C2(F)C1(F)F` (stereo not drawn) [Perfluorodecalin (PFD), perfluorodecalin], the “pH of the solution” value turned out to be 7 and the “Color of the solution” value is reported as “Colorless”. For the same compound, the Time of dissolution (1 mg/ml in PFOC) amounted to 0.5 min.
Take `FC(F)(F)C(F)(F)C(F)(F)N(C(F)(F)C(F)(F)C(F)(F)F)C(F)(F)C(F)(F)C(F)(F)F` [Tri(perfluoropropyl)amine (TPA), tri(perfluoropropyl)amine]: the “pH of the solution” value came out at 7 and the “Color of the solution” value is given as “Colorless”. Also, the Time of dissolution (1 mg/ml in PFOC) turned out to be 0.5 min.
On to `CCN(CC)CC` [Triethylamine], for which the “pH of the solution” value is recorded as 8. Besides, the Time of dissolution result (not dissolved within this time) is “Not dissolved in 5 hours”.

Values taken from patent US20040151679A1, “Dissolving agent for melanin” (priority 2001, published 2004).
